Test results from patent US20120269790A1, “USE OF PLANT EXTRACTS AS PREBIOTICS, COMPOSITIONS AND FOODS CONTAINING SUCH EXTRACT” (priority 2009, published 2012).

Experiments:
[1] = biological target: T1, alpha-amylase from pancreas of pig (Sus scrofa, UniProt P00690); assay: In vitro inhibition of pig alpha-amylase; type: biochemical; settings: 35 micrograms/ml; 100% = activity without inhibitor
T1 construct: alpha-amylase from pancreas of pig; purchased Sigma; host or cells: pig pancreas
T1 sequence (P00690 16-511): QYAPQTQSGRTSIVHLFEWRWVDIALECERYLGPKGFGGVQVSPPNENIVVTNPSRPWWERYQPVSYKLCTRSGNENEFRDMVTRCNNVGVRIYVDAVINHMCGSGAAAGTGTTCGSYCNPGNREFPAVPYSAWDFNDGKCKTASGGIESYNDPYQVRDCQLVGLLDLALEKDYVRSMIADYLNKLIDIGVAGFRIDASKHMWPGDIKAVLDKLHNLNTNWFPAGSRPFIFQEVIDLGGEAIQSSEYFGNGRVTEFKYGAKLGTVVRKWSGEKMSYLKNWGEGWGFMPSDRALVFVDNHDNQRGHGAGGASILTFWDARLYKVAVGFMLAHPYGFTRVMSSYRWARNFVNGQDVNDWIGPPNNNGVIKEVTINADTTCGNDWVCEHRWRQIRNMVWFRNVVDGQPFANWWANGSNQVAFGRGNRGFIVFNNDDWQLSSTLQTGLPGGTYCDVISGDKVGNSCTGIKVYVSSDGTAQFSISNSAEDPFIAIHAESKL
Procedure: The enzymes tested were obtained from the following sources: alpha-amylase from pancreas of pig and alpha-glucosidase from Saccharomyces cerevisiae (both purchased from Sigma) and alpha-glucosidase from pig (isolated from pig intestine according to Menakshy et al. 2008).
Measures alpha-amylase activity and alpha-glucosidase were carried out according to procedures supplied by Sigma acquired with enzymes. Briefly, the alpha-glucosidase activity was determined spectrophotometrically at 400 nm, with p-Nitrophenyl α-D-Glucoside (PNP) as substrate and alpha-amylase activity was determined spectrophotometrically at 540 nm, with soluble potato starch as substrate. As a positive control measurements were performed with acarbose as inhibitor.
For measures with pig alpha-amylase the positive control measures were with acarbose at 35 micrograms/ml, while the concentration of pomegranate extract tested was 250 micrograms/ml.

[2] = biological target: T2, 3-hydroxy-3-methylglutaryl-CoA reductase (HMGR) (Homo sapiens, UniProt P04035); assay: In vitro HMGR activity (Sigma kit); type: biochemical; settings: 500 nanomolar; 100% = activity without inhibitor
T2 construct: purchased Sigma
T2 sequence (P04035 426-888 limits assumed): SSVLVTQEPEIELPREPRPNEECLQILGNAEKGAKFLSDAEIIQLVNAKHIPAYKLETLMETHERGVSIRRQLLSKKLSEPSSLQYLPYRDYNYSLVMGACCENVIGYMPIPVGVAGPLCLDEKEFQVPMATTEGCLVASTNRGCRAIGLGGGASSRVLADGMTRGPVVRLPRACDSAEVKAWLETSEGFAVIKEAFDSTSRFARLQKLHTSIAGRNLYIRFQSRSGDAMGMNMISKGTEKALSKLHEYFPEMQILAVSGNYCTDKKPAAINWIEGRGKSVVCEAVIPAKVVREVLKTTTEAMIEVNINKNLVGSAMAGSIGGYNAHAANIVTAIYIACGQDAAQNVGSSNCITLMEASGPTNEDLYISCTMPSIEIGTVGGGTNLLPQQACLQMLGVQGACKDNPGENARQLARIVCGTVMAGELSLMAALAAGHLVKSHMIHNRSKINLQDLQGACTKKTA
Procedure: Measurements were performed in triplicate. In the case of HMGR concentration measurements used for positive control with pravastatin was 500 nanomolar, while the concentration of pomegranate extract tested was 100 micrograms/ml.

Compound | % Pig alfa-amilase Activity [1] | % HMGR activity [2]
C[C@H]1O[C@H](O[C@H]2[C@H](O)[C@@H](O)[C@@H](O[C@H]3[C@H](O)[C@@H](O)C(O)O[C@@H]3CO)O[C@@H]2CO)[C@H](O)[C@@H](O)[C@@H]1N[C@H]1C=C(CO)[C@@H](O)[C@H](O)[C@H]1O (some centres unmarked) [acarbose] | 41.2 ± 2.3% | 
CC[C@H](C)C(=O)O[C@H]1C[C@H](O)C=C2C=C[C@H](C)[C@H](CC[C@@H](O)C[C@@H](O)CC(=O)O)[C@H]21 [pravastatine, pravastatin] |  | 9.7 ± 3.4%
